Data taken from publication PMC8003343 (Pharmaceuticals, 2021).
Values belong to the compound of their own block, whether it stands above or below them.

How the values were obtained:
[1] = In vitro intrinsic clearance in rat liver microsomes (RLM); assay type: in vitro ADME, Sprague Dawley rats; settings: microsomes from rat, mouse, mini pig, and rhesus
Description: (§1) Liver microsomes from Sprague Dawley rats (RLM), CD-1 mice (MLM), beagle dogs (DLM), Göttinger mini pigs (MPLM), rhesus monkeys (RMLM), and humans (HLM, specified total P450 content: 0.286 nmol/mg protein) were obtained from Thermo Fisher Scientific/Life Technologies (Darmstadt, Germany). Optimization of incubation conditions (microsomal protein concentration, substrate solvent, incubation buffer) has been carried out in a previous study. For assessment of intrinsic clearance (CLint), substrate (8 µM CBX, MCBX or CPFPX, stock solutions in DMSO) and microsomes (0.4 mg/mL RLM, MLM, DLM and MPLM, 2.0 mg/mL HLM and 0.04 mg/mL RMLM) were preincubated for 5 min at 37 °C in HEPES buffer (100 mM, pH 7.4) containing MgCl2 (3.3 mM). Enzymatic reactions were initiated by addition of preheated NADPH (1.3 mM) and were allowed to proceed for 30 min. Aliquots (100 µL) were sampled from the incubation mixture (500 µL total volume) at 0 and 30 min. An equal volume of a mixture of MeOH/MeCN (50:50, v/v, cooled to −20 °C) was added to terminate the reaction. After subsequent homogenization on a vortex mixer (1 min, 21 °C) and centrifugation (10 min, 20,000× g rcf, 21 °C), the supernatants (50 µL aliquots) were analyzed via HPLC-UV/VIS (Knauer smartline system equipped with a Rheodyne type 7125 sample injector and a 500 µL sample loop). Chromatographic conditions were as follows. Column: 4.6 mm × 250 mm Kromasil 100-5-C18 (AkzoNobel, Bohus, Sweden); eluent composition: MeCN/H2O/AcOH 48:52:0.2 (v/v/v); flow rate: 1 mL/min; detection wavelength: 275 nm. Microsomal assays were performed in quadruplicate.
(§2) Elimination rate constants (k) of CBX, MCBX, and CPFPX were derived via linear regression analysis of semi-logarithmic peak area vs. time plots.
(§3) In vitro half-life (t1/2) was calculated as:(1) t1/2=ln2/k
(§4) In vitro intrinsic clearance was calculated as follows:(2) Clint=ln2/t1/2[…] where c is the microsomal protein concentration. Since the main focus of the study was to compare CLint between species, but not between compounds, no correction for the microsomal unbound fraction was applied.

[2] = Metabolite profiles in liver microsomes from various species (HPLC-UV/LCMS); assay type: in vitro ADME, human, rat, mouse, dog, mini pig, rhesus monkey; settings: for species whose metabolite profile is most similar to the human metabolite profile: liver microsomes; for Species (liver microsomes in which the peak was found): h human, r rat, m mouse, d dog, mp mini pig, rh rhesus, brackets indicate minor peaks, 275 nm; for number of metabolites produced by microsomal metabolism: in the microsomes of the test species
Description: Microsomal assays aimed at metabolite profiling were conducted according to the protocol described in Section 4.3.1, but with 10 µL substrate (CBX, MCBX, CPFPX) in a total incubation volume of 1 mL. In Table 6, microsomal protein concentrations and incubation times used in the individual assays are listed. Blank samples containing all matrix components but no substrate were included. Incubations were terminated by adding two volumens of a mixture of MeOH/MeCN (50:50, v/v, cooled to −20 °C). Samples were then vortexed (1 min, 21 °C), centrifuged (10 min, 20,000× g rcf, 21 °C), and evaporated to dryness using a centrifugal vacuum concentrator (Concentrator 5301, Eppendorf, Wesseling-Berzdorf, Germany) set to a temperature of 45 °C. Dried samples were reconstituted with 160 µL HPLC eluent (MeCN/H2O/AcOH 35:65:0.1 (v/v/v)) and centrifuged (3 min, 20,000× g rcf, 21 °C). Aliquots of the clear supernatant (25 µL) were subsequently injected into the HPLC system. Chromatographic parameters were the same as described in Section 4.3.1, except for the addition of a 3 mm NH2 guard column (OPTI-GUARD, Optimize Technologies Inc., Oregon City, OR, USA). For LCMS analyses, the UV-detector outlet was coupled to a mass spectrometer (MSQ PlusTM, Thermo Electron Corporation, San Jose, CA, USA) via an electrospray interface. LCMS parameters were as follows. Nebulizer M gas pressure: 6 bar; desolvation temperature: 500 °C; positive ion mode (ESI+); sprayer voltage: 3000 V; cone voltages: 50 V (unfragmented spectra) or 185 V (fragmented spectra), m/z range 1–800; scan time: 1 s. Mass spectra were analyzed using Xcalibur software (version 3.0).

[3] = In vitro intrinsic clearance in dog liver microsomes (DLM); assay type: in vitro ADME, beagle dogs
Description: as §1, §2, §3, §4

[4] = In vitro intrinsic clearance in human liver microsomes (HLM); assay type: in vitro ADME
Description: as §1, §2, §3, §4

[5] = In vitro intrinsic clearance in rhesus monkey liver microsomes (RMLM); assay type: in vitro ADME, rhesus monkeys; settings: rhesus vs human liver microsomes; highest ratio among the three compounds
Description: as §1, with “Aliquots (100 µL) were sampled from the incubation mixture (500 µL total volume) at 0 and 30 min. An equal volume of a mixture of MeOH/MeCN (50:50, v/v, cooled to −20 °C) was added to terminate the reaction.” left out, “Chromatographic conditions were as follows. Column: 4.6 mm × 250 mm Kromasil 100-5-C18 (AkzoNobel, Bohus, Sweden); eluent composition: MeCN/H2O/AcOH 48:52:0.2 (v/v/v); flow rate: 1 mL/min; detection wavelength: 275 nm. Microsomal assays were performed in quadruplicate.” left out
as §3
In vitro intrinsic clearance was calculated as follows:(2) Clint=ln2/t1/2×c where c is the microsomal protein concentration. […]

[6] = set-up: method as in PMID 1441590; settings: human microsomes from a single donor; cited from earlier work
[7] = radiometabolite of [18F]CPFPX; cited from earlier work
[8] = rats and mice after [18F]CPFPX injection; cited from earlier work
[9] = from [18F]CPFPX; cited from earlier work
[10] = from [18F]CPFPX; cited from earlier work; remark: listed apart in the source
[11] = Enone metabolite formation in rat liver microsomes; assay type: in vitro ADME; settings: 6 at 4 µM, 0.4 mg/mL RLM, 100 min
Description: (§5) In preliminary experiments, the potential enone precursors 5–8 (8 µM) were incubated with either RLM (0.4 mg/mL) or HLM (0.8 mg/mL) for up to 4 h according to the protocol given in Section 4.3.1. Multiple samples were taken during incubation and analyzed with regard to the presence of the enone metabolite 4 in the incubation mixture.
(§6) The time course of the formation of 4 from precursor 6 was monitored by incubation of 6 (4 µM) with either 1.0 mg/mL HLM for 150 min or 0.4 mg/mL RLM for 100 min according to the procedures described in Section 4.3.1. but with a prolonged centrifugation cycle (15 min) for protein precipitation. Chromatographic separation was performed on a Kromasil C18 column (see Section 4.3.1) equipped with a 3 mm NH2 guard column (OPTI-GUARD, Optimize Technologies Inc., Oregon City, OR, USA) using an eluent composed of MeCN/H2O/AcOH 45:55:0.1 (v/v/v). All other chromatographic parameters resembled those given above. Incubations were conducted in triplicate.

[12] = Enone metabolite formation in human liver microsomes; assay type: in vitro ADME; settings: 6 at 4 µM, 1.0 mg/mL HLM, 150 min
Description: as §5, §6

rank order of CLint [1]: CPFPX > MCBX > CBX
species whose metabolite profile is most similar to the human metabolite profile [2]: rhesus monkey and mini pig
Species (liver microsomes in which the peak was found) ([2]; substrate CBX): (h), r, m, d, (mp), rh
rank order of CLint [3]: CPFPX > MCBX ≈ CBX
rank order of CLint [4]: CBX > CPFPX > MCBX
SMILES: CCCn1c(=O)c2[nH]c(C3CCC3)nc2n(CCCF)c1=O [CBX, 8-Cyclobutyl-3-(3-fluoropropyl)-1-propylxanthine]

species microsomes generating the enone metabolite from CPFPX ([2]; substrate CPFPX): exclusively in human and dog microsomes
Species (liver microsomes in which the peak was found) ([2]; substrate CPFPX): h, d
SMILES: CCCn1c(=O)c2[nH]c(C3=CC(=O)CC3)nc2n(CCCF)c1=O [compound 4, 3-(3-Fluoropropyl)-8-(3-oxocyclopent-1-en-1-yl)-1-propylxanthine]
blood–brain barrier penetration [7]: does not penetrate the blood–brain barrier
excretion from the body [7]: slow excretion from the body
formation of the enone metabolite in vivo (plasma) [8]: generated in vivo
formation of the enone radiometabolite in human microsomes [9]: extensive formation
formation of the enone radiometabolite in microsomes from rats and mice [10]: almost no significant amounts could be detected

metabolic fate (time course) in rat liver microsomes [11]: oxidized to produce 9
SMILES: CCCn1c(=O)c2[nH]c(C3=CCCC3)nc2n(CCCF)c1=O [compound 6, 8-(Cyclopent-1-en-1-yl)-3-(3-fluoropropyl)-1-propylxanthine]
metabolic fate (time course) in human liver microsomes [12]: biotransformation proceeds from 6 via 9 to 4

metabolic fate (time course) in rat liver microsomes [11]: remained constant
metabolic fate (time course) in human liver microsomes [12]: further metabolized to 4
SMILES: CCCn1c(=O)c2[nH]c(C3=CC(O)CC3)nc2n(CCCF)c1=O (centres unmarked) [compound 9, 3-(3-fluoropropyl)-8-(3-hydroxycyclopent-1-en-1-yl)-1-propylxanthine]

Second part, the compound before the results:

SMILES: CCCn1c(=O)c2nc(C3CCCC3)[nH]c2n(CCCF)c1=O [CPFPX, 8-Cyclopentyl-3-(3-fluoropropyl)-1-propylxanthine]
CLint in rhesus microsomes relative to human microsomes (fold higher) [5]: 134 fold
rank order of CLint [1]: CPFPX > MCBX > CBX
number of metabolites produced by microsomal metabolism [2]: up to 12 metabolites
Species (liver microsomes in which the peak was found) ([2]; substrate CPFPX): h, r, m, d, mp, rh
rank order of CLint [3]: CPFPX > MCBX ≈ CBX
rank order of CLint [4]: CBX > CPFPX > MCBX

SMILES: CCCn1c(=O)c2[nH]c(C3(C)CCC3)nc2n(CCCF)c1=O [MCBX, 3-(3-Fluoropropyl)-8-(1-methylcyclobutyl)-1-propylxanthine]
rank order of CLint [1]: CPFPX > MCBX > CBX
number of metabolites produced by microsomal metabolism [2]: up to 10 metabolites
species whose metabolite profile is most similar to the human metabolite profile [2]: Rodent
Species (liver microsomes in which the peak was found) ([2]; substrate MCBX): h, r, m, d, mp, rh
rank order of CLint [3]: CPFPX > MCBX ≈ CBX
rank order of CLint [4]: CBX > CPFPX > MCBX

SMILES: Cn1c(=O)c2c(ncn2C)n(C)c1=O [caffeine]
rate of metabolism in hepatic microsomes, species comparison [6]: considerably higher in hepatic microsomes from humans than in those from rats or monkeys
